In patent publication US9125407B2, “Compositions comprising an aryl pyrazole and a substituted imidazole, methods and uses thereof” (MERIAL LIMITED, priority 2011, dated 2015):

Assays:
Rhipicephalus sanguineus [1] = experiment: Tick contact behavioral assay (TCBA), excitatory response in glass vials; settings: 24 h post-treatment
Description: Another screening method used to test compounds of the present invention is the tick contact behavioral assay (TCBA). Compounds that elicit excitatory activity in ticks should increase their motility, thus increasing the parasite's chances of encountering fipronil if fipronil is present.
The TCBA was performed on Rhipicephalus sanguineus in glass vials. Briefly, a paper disc is treated with the desired amount of test compound and placed into the vial with approximately ten ticks. The ticks are observed for excitatory response but are not otherwise stimulated for evaluation.
From these observations, an EC50 for excitatory response is established. Observations were made at 4 h and 24 h post-treatment. […]

Rhipicephalus sanguineus [2] = experiment: Tick mortality in combination with fipronil (25 ppm), 100% mortality at 6 hours; settings: dose of compound combined with fipronil 25 ppm producing 100% mortality in 6 hours
Description: Observations were made at 4 h and 24 h post-treatment.
The compounds were then combined with fipronil (25 ppm) and tested for 100% mortality at 6 hours.

[3] = pH about 5.0 to about 6.0; cited from earlier work
[4] = 14C radiolabeled drug, spot-on, beagle dogs; cited from earlier work

**Q.** Which “TCBA Assay EC50 (@ 24 h, ppm)” value (Rhipicephalus sanguineus [1]) does the source give for Cc1cccc2c1C(c1ncc[nH]1)CC2 (centres unmarked) [1H-imidazole, 2-(2,3-dihydro-7-methyl-1H-inden-1-yl)] here?
**A.** 6 ppm

**Q.** For Cc1cccc2c1CCCC2c1ncc[nH]1 (centres unmarked) [2-(5-methyl-1,2,3,4-tetrahydronaphthalen-1-yl)-1H-imidazole], which “Fipronil combination (25 ppm) (6 h mortality) Dose (ppm)” value (Rhipicephalus sanguineus [2]) is on record?
**A.** 25 ppm

**Q.** And the “TCBA Assay EC50 (@ 24 h, ppm)” value (Rhipicephalus sanguineus [1])?
**A.** 6 ppm

**Q.** What does the source list for Cc1ccc(/N=C/N(C)/C=N/c2ccc(C)cc2C)c(C)c1 [Amitraz, amitraz]?
**A.** stability at pH of about 5.0 to about 6.0 [3]: degrade; Fipronil combination (25 ppm) (6 h mortality) Dose (ppm) (Rhipicephalus sanguineus [2]): 12.5 ppm; TCBA Assay EC50 (@ 24 h, ppm) (Rhipicephalus sanguineus [1]): 1.6 ppm

**Q.** What does the source list for Cc1cccc2c1CCC2c1ncc[nH]1 (centres unmarked) [ML-449, 1H-imidazole, 2-(2,3-dihydro-4-methyl-1H-inden-1-yl)]?
**A.** Fipronil combination (25 ppm) (6 h mortality) Dose (ppm) (Rhipicephalus sanguineus [2]): 25 ppm; TCBA Assay EC50 (@ 24 h, ppm) (Rhipicephalus sanguineus [1]): 6 ppm

**Q.** Which “Fipronil combination (25 ppm) (6 h mortality) Dose (ppm)” value (Rhipicephalus sanguineus [2]) does the source give for Cc1cccc(C(C)c2ncc[nH]2)c1C (centres unmarked) [demiditraz] here?
**A.** 12.5 ppm

**Q.** And the “TCBA Assay EC50 (@ 24 h, ppm)” value (Rhipicephalus sanguineus [1])?
**A.** 5 ppm

**Q.** Which “time persistently detected in whole skin after treatment” value [4] does the source give for N#Cc1nn(-c2c(Cl)cc(C(F)(F)F)cc2Cl)c(N)c1[S+]([O-])C(F)(F)F (centres unmarked) [fipronil, 5-amino-3-cyano-1-(2,6-dichloro-4-trifluoromethylphenyl)-4-trifluoromethylsulfinylpyrazole] here?
**A.** up to 56 days
